Values after ≈ are worked out from the molar mass of the structure shown. Active and inactive are the calls of the source. The rule behind the calls is not given here.
How the values were obtained:
Staphylococcus aureus [1] = assay: Antibacterial activity against Staphylococcus aureus MTCC 96 assessed as growth inhibition after 24 hr by agar well diffusion method; format: functional; conditions: MTCC 96, 24 h
Bacillus subtilis [2] = assay: Antibacterial activity against Bacillus subtilis MTCC 121 assessed as growth inhibition after 24 hr by agar well diffusion method; format: functional; conditions: MTCC 121, 24 h
Escherichia coli = assay: Antibacterial activity against Escherichia coli MTCC 1652 assessed as growth inhibition at 4 mg/mL after 24 hr by agar well diffusion method; format: functional, organism-based
Bacillus subtilis [3] = assay: Antibacterial activity against Bacillus subtilis MTCC 121 assessed as growth inhibition at 4 mg/mL after 24 hr by agar well diffusion method; format: functional; conditions: for zone of inhibition at 4000 µg/mL: MTCC 121, 24 h, read-out: DIZ
Saccharomyces cerevisiae [4] = assay: Antifungal activity against Saccharomyces cerevisiae MTCC 170 assessed as growth inhibition at 4 mg/mL after 24 hr by agar well diffusion method; format: functional; conditions: for zone of inhibition at 4000 µg/mL: MTCC 170, 24 h, read-out: DIZ
Staphylococcus aureus [5] = assay: Antibacterial activity against Staphylococcus aureus MTCC 96 assessed as growth inhibition at 4 mg/mL after 24 hr by agar well diffusion method; format: functional; conditions: for zone of inhibition at 4000 µg/mL: MTCC 96, 24 h, read-out: DIZ
Candida albicans [6] = assay: Antifungal activity against Candida albicans MTCC 227 assessed as growth inhibition at 4 mg/mL after 24 hr by agar well diffusion method; format: functional; conditions: for zone of inhibition at 4000 µg/mL: MTCC 227, 24 h, read-out: DIZ
Saccharomyces cerevisiae [7] = assay: Antifungal activity against Saccharomyces cerevisiae MTCC 170 assessed as growth inhibition after 24 hr by agar well diffusion method; format: functional; conditions: MTCC 170, 24 h
Candida albicans [8] = assay: Antifungal activity against Candida albicans MTCC 227 assessed as growth inhibition after 24 hr by agar well diffusion method; format: functional; conditions: MTCC 227, 24 h

Compound | MIC (Staphylococcus aureus [1]) [µg/mL] | MIC (Bacillus subtilis [2]) [µg/mL] | growth inhibition (GI) (Escherichia coli) | zone of inhibition at 4000 µg/mL (Bacillus subtilis [3]) [mm] | growth inhibition (GI) (Saccharomyces cerevisiae [4]) | zone of inhibition at 4000 µg/mL (Staphylococcus aureus [5]) [mm] | growth inhibition (GI) (Candida albicans [6]) | zone of inhibition at 4000 µg/mL (Saccharomyces cerevisiae [4]) [mm] | MIC (Saccharomyces cerevisiae [7]) [µg/mL] | zone of inhibition at 4000 µg/mL (Candida albicans [6]) [mm] | MIC (Candida albicans [8]) [µg/mL] | growth inhibition (GI) (Bacillus subtilis [3]) | growth inhibition (GI) (Staphylococcus aureus [5])
NS(=O)(=O)c1ccc(-n2nc(-c3ccc(Cl)cc3)c3c(C(F)(F)F)cc(-c4ccc5ccccc5c4)nc32)cc1 | 128 (≈ 221 µM) | 128 (≈ 221 µM) | inactive | 16.3 | inactive | 15.3 | inactive | – | – | – | – | – | –
Cc1cc(C(F)(F)F)c2c(-c3ccccc3)nn(-c3ccc(S(N)(=O)=O)cc3)c2n1 | 64 (≈ 148 µM) | 64 (≈ 148 µM) | inactive | 20.3 | – | 19.3 | – | 15.3 | 64 (≈ 148 µM) | 16.3 | 64 (≈ 148 µM) | – | –
Cc1ccc(-c2nn(-c3ccc(S(N)(=O)=O)cc3)c3nc(C(F)(F)F)cc(C(F)(F)F)c23)cc1 | 128 (≈ 256 µM) | 128 (≈ 256 µM) | inactive | 16.6 | inactive | 15.6 | inactive | – | – | – | – | – | –
NS(=O)(=O)c1ccc(-n2nc(-c3ccccc3)c3c(C(F)(F)F)cc(-c4ccccc4)nc32)cc1 | 64 (≈ 129 µM) | 128 (≈ 259 µM) | inactive | 17 | – | 18.6 | – | 16.3 | 64 (≈ 129 µM) | 15.3 | 64 (≈ 129 µM) | – | –
COc1ccc(-c2cc(C(F)(F)F)c3c(-c4ccc(Cl)cc4)nn(-c4ccc(S(N)(=O)=O)cc4)c3n2)cc1 | – | – | inactive | – | inactive | – | inactive | – | – | – | – | inactive | inactive
Cc1ccc(-c2nn(-c3ccc(S(N)(=O)=O)cc3)c3nc(-c4ccccc4)cc(C(F)(F)F)c23)cc1 | 64 (≈ 126 µM) | 128 (≈ 252 µM) | inactive | 17.6 | inactive | 18.3 | inactive | – | – | – | – | – | –
NS(=O)(=O)c1ccc(-n2nc(-c3ccccc3)c3c(C(F)(F)F)cc(-c4ccc5ccccc5c4)nc32)cc1 | 256 (≈ 470 µM) | 256 (≈ 470 µM) | inactive | 14.6 | inactive | 13.6 | inactive | – | – | – | – | – | –
Cc1ccc(-c2cc(C(F)(F)F)c3c(-c4ccc(Cl)cc4)nn(-c4ccc(S(N)(=O)=O)cc4)c3n2)cc1 | – | – | inactive | – | inactive | – | inactive | – | – | – | – | inactive | inactive
NS(=O)(=O)c1ccc(-n2nc(-c3ccc(Cl)cc3)c3c(C(F)(F)F)cc(-c4ccc(Br)cc4)nc32)cc1 | – | – | inactive | – | inactive | – | inactive | – | – | – | – | inactive | inactive
NS(=O)(=O)c1ccc(-n2nc(-c3ccccc3)c3c(C(F)(F)F)cc(-c4ccc(Cl)cc4)nc32)cc1 | 128 (≈ 242 µM) | 128 (≈ 242 µM) | inactive | 16.3 | inactive | 15 | inactive | – | – | – | – | – | –
NS(=O)(=O)c1ccc(-n2nc(-c3ccc(Cl)cc3)c3c(C(F)(F)F)cc(-c4ccc(F)cc4)nc32)cc1 | – | – | inactive | – | inactive | – | inactive | – | – | – | – | inactive | inactive
Cc1ccc(-c2nn(-c3ccc(S(N)(=O)=O)cc3)c3nc(-c4ccc(Cl)cc4)cc(C(F)(F)F)c23)cc1 | 128 (≈ 236 µM) | 128 (≈ 236 µM) | inactive | 16.3 | inactive | 15.6 | inactive | – | – | – | – | – | –
Cc1cc(C(F)(F)F)c2c(-c3ccc(Cl)cc3)nn(-c3ccc(S(N)(=O)=O)cc3)c2n1 | 64 (≈ 137 µM) | 128 (≈ 274 µM) | inactive | 17.6 | inactive | 18.6 | inactive | – | – | – | – | – | –

Reference: ChEMBL document CHEMBL3045429, “Exploration of antimicrobial potential of pyrazolo[3,4-b]pyridine scaffold bearing benzenesulfonamide and trifluoromethyl moieties” (2013)
